Test results: the NIST ThermoML archive (doi:10.1016/j.jct.2005.04.017)
Numbers after ± are expanded uncertainties.

Assay: mn = molality of the nth substance listed, in mol/kg
Details: Liquid, Capillary tube (Ostwald / Ubbelohde) method

O=[N+]([O-])[O-].O=[N+]([O-])[O-].[Ni+2] [nickel(II) nitrate] + O
viscosity [mPa·s]
Details | 100 kPa | 10000 kPa | 20000 kPa | 30000 kPa
372.49 K, m1 = 1.368 | – | – | 0.4824 ± 0.0086 | 0.4869 ± 0.0087
372.54 K, m1 = 0.05 | 0.2921 ± 0.0051 | 0.2949 ± 0.0052 | 0.2984 ± 0.0053 | 0.3015 ± 0.0053
372.84 K, m1 = 1.824 | 0.5558 ± 0.01 | 0.5612 ± 0.01 | 0.5672 ± 0.01 | 0.5721 ± 0.01
373.06 K, m1 = 0.288 | – | 0.3246 ± 0.0058 | 0.3275 ± 0.0058 | 0.3318 ± 0.0059
373.82 K, m1 = 0.608 | – | 0.36 ± 0.0063 | 0.3643 ± 0.0064 | 0.3681 ± 0.0065
375.48 K, m1 = 2.246 | – | 0.619 ± 0.011 | 0.6251 ± 0.011 | 0.6322 ± 0.012
375.81 K, m1 = 0.951 | 0.395 ± 0.007 | 0.399 ± 0.0071 | 0.4042 ± 0.0072 | 0.407 ± 0.0072
394.58 K, m1 = 2.246 | – | 0.5162 ± 0.0095 | 0.5211 ± 0.0095 | 0.5279 ± 0.0097
394.68 K, m1 = 0.05 | – | 0.2391 ± 0.0043 | 0.2416 ± 0.0043 | 0.2449 ± 0.0044
396.43 K, m1 = 0.951 | – | 0.3329 ± 0.0059 | 0.3365 ± 0.006 | 0.3403 ± 0.0061
397.82 K, m1 = 0.153 | – | 0.2441 ± 0.0044 | 0.2474 ± 0.0044 | 0.2509 ± 0.0045
398.42 K, m1 = 0.288 | – | 0.2566 ± 0.0046 | 0.2608 ± 0.0047 | 0.2633 ± 0.0047
398.49 K, m1 = 0.608 | – | 0.289 ± 0.0051 | 0.293 ± 0.0052 | 0.2967 ± 0.0053
398.61 K, m1 = 0.218 | – | 0.249 ± 0.0044 | 0.2532 ± 0.0045 | 0.2549 ± 0.0045
399.46 K, m1 = 1.368 | – | 0.3743 ± 0.0068 | 0.3789 ± 0.0069 | 0.384 ± 0.0069
399.46 K, m1 = 1.824 | – | 0.4393 ± 0.008 | 0.4445 ± 0.0081 | 0.4496 ± 0.0082
412.58 K, m1 = 2.246 | – | 0.4452 ± 0.0081 | 0.4505 ± 0.0082 | 0.4568 ± 0.0083
416.89 K, m1 = 1.368 | – | 0.327 ± 0.0059 | 0.3311 ± 0.006 | 0.3363 ± 0.0061
421.95 K, m1 = 0.05 | – | 0.1929 ± 0.0035 | 0.1958 ± 0.0036 | 0.1985 ± 0.0036
422.49 K, m1 = 1.824 | – | 0.3682 ± 0.0067 | 0.3726 ± 0.0068 | 0.378 ± 0.0069
422.81 K, m1 = 0.288 | – | 0.2142 ± 0.0039 | 0.2168 ± 0.0039 | 0.2198 ± 0.004
422.83 K, m1 = 0.951 | – | 0.2731 ± 0.0049 | 0.2767 ± 0.005 | 0.2807 ± 0.005
423.73 K, m1 = 0.608 | – | 0.2402 ± 0.0043 | 0.2435 ± 0.0044 | 0.2468 ± 0.0044
424.57 K, m1 = 0.153 | – | 0.1989 ± 0.0036 | 0.203 ± 0.0037 | 0.205 ± 0.0037
424.57 K, m1 = 0.218 | – | 0.2053 ± 0.0037 | 0.2081 ± 0.0038 | 0.2119 ± 0.0038
426.84 K, m1 = 2.246 | – | 0.4007 ± 0.0074 | 0.4063 ± 0.0075 | 0.4124 ± 0.0076
426.89 K, m1 = 1.368 | – | 0.3051 ± 0.0056 | 0.3095 ± 0.0056 | 0.3134 ± 0.0057
446.79 K, m1 = 2.246 | – | 0.3515 ± 0.0065 | 0.3578 ± 0.0066 | 0.3622 ± 0.0067
447.26 K, m1 = 1.368 | – | 0.2684 ± 0.0049 | 0.2714 ± 0.005 | 0.276 ± 0.005
448.24 K, m1 = 1.824 | – | 0.3116 ± 0.0057 | 0.3159 ± 0.0058 | 0.3211 ± 0.0059
448.96 K, m1 = 0.288 | – | 0.1818 ± 0.0033 | 0.1845 ± 0.0034 | 0.1878 ± 0.0034
449.28 K, m1 = 0.153 | – | 0.1703 ± 0.0031 | 0.1741 ± 0.0032 | 0.1764 ± 0.0032
449.46 K, m1 = 0.608 | – | 0.205 ± 0.0037 | 0.2085 ± 0.0038 | 0.2114 ± 0.0038
449.48 K, m1 = 0.951 | – | 0.2309 ± 0.0042 | 0.2347 ± 0.0043 | 0.2382 ± 0.0043
449.65 K, m1 = 0.05 | – | 0.1611 ± 0.003 | 0.1639 ± 0.003 | 0.1661 ± 0.0031
449.72 K, m1 = 0.218 | – | 0.175 ± 0.0032 | 0.1778 ± 0.0033 | 0.1807 ± 0.0033
471.51 K, m1 = 0.153 | – | 0.151 ± 0.0028 | 0.1534 ± 0.0029 | 0.1565 ± 0.0029
472.15 K, m1 = 0.05 | – | 0.142 ± 0.0027 | 0.1447 ± 0.0027 | 0.1468 ± 0.0028
472.46 K, m1 = 2.246 | – | 0.304 ± 0.0056 | 0.3094 ± 0.0057 | 0.314 ± 0.0058
473.12 K, m1 = 1.824 | – | 0.2716 ± 0.005 | 0.2768 ± 0.0051 | 0.2808 ± 0.0052
473.87 K, m1 = 0.288 | – | 0.1591 ± 0.003 | 0.1628 ± 0.003 | 0.1645 ± 0.003
474.24 K, m1 = 0.218 | – | 0.1536 ± 0.0029 | 0.156 ± 0.0029 | 0.1592 ± 0.003
474.83 K, m1 = 0.608 | – | 0.1805 ± 0.0033 | 0.1834 ± 0.0034 | 0.186 ± 0.0034
475.84 K, m1 = 1.368 | – | 0.23 ± 0.0042 | 0.2342 ± 0.0043 | 0.2375 ± 0.0044
